# Measured values: the NIST ThermoML archive (doi:10.1021/je400472v)
# ± gives the expanded uncertainty stated by the source.
# Test: mean ionic activity coefficient (dimensionless); mn = molality of the nth substance listed, in mol/kg
# Details: 101 kPa, Liquid
structure (smiles),measurement,setting,value
[Cl-].[Cl-].[Sr+2] [strontium chloride] + O,mean ionic activity coefficient,"283.15 K, m1 = 0.01",0.732 ± 0.001
same,mean ionic activity coefficient,"283.15 K, m1 = 0.02",0.668 ± 0.001
same,mean ionic activity coefficient,"283.15 K, m1 = 0.05",0.58 ± 0.001
same,mean ionic activity coefficient,"283.15 K, m1 = 0.1",0.519 ± 0.001
same,mean ionic activity coefficient,"283.15 K, m1 = 0.2",0.47 ± 0.001
same,mean ionic activity coefficient,"283.15 K, m1 = 0.3",0.45 ± 0.001
same,mean ionic activity coefficient,"293.15 K, m1 = 0.01",0.728 ± 0.001
same,mean ionic activity coefficient,"293.15 K, m1 = 0.02",0.663 ± 0.001
same,mean ionic activity coefficient,"293.15 K, m1 = 0.05",0.575 ± 0.001
same,mean ionic activity coefficient,"293.15 K, m1 = 0.1",0.513 ± 0.001
same,mean ionic activity coefficient,"293.15 K, m1 = 0.2",0.464 ± 0.001
same,mean ionic activity coefficient,"293.15 K, m1 = 0.3",0.444 ± 0.001
same,mean ionic activity coefficient,"298.15 K, m1 = 0.01",0.726 ± 0.001
same,mean ionic activity coefficient,"298.15 K, m1 = 0.02",0.661 ± 0.001
same,mean ionic activity coefficient,"298.15 K, m1 = 0.05",0.571 ± 0.001
same,mean ionic activity coefficient,"298.15 K, m1 = 0.1",0.509 ± 0.001
same,mean ionic activity coefficient,"298.15 K, m1 = 0.2",0.459 ± 0.001
same,mean ionic activity coefficient,"298.15 K, m1 = 0.3",0.439 ± 0.001
same,mean ionic activity coefficient,"298.15 K, m1 = 0.4",0.43 ± 0.001
same,mean ionic activity coefficient,"298.15 K, m1 = 0.5",0.428 ± 0.001
same,mean ionic activity coefficient,"298.15 K, m1 = 0.6",0.43 ± 0.001
same,mean ionic activity coefficient,"298.15 K, m1 = 0.7",0.435 ± 0.001
same,mean ionic activity coefficient,"298.15 K, m1 = 0.8",0.442 ± 0.001
same,mean ionic activity coefficient,"298.15 K, m1 = 0.9",0.451 ± 0.001
same,mean ionic activity coefficient,"298.15 K, m1 = 1",0.462 ± 0.001
same,mean ionic activity coefficient,"298.15 K, m1 = 1.2",0.489 ± 0.001
same,mean ionic activity coefficient,"298.15 K, m1 = 1.4",0.522 ± 0.001
same,mean ionic activity coefficient,"298.15 K, m1 = 1.6",0.562 ± 0.001
same,mean ionic activity coefficient,"298.15 K, m1 = 1.8",0.609 ± 0.001
same,mean ionic activity coefficient,"298.15 K, m1 = 2",0.665 ± 0.001
same,mean ionic activity coefficient,"298.15 K, m1 = 2.5",0.849 ± 0.001
same,mean ionic activity coefficient,"298.15 K, m1 = 3",1.12 ± 0.001
same,mean ionic activity coefficient,"298.15 K, m1 = 3.5",1.524 ± 0.001
same,mean ionic activity coefficient,"298.15 K, m1 = 3.52",1.544 ± 0.001
same,mean ionic activity coefficient,"303.15 K, m1 = 0.01",0.724 ± 0.001
same,mean ionic activity coefficient,"303.15 K, m1 = 0.02",0.658 ± 0.001
same,mean ionic activity coefficient,"303.15 K, m1 = 0.05",0.569 ± 0.001
same,mean ionic activity coefficient,"303.15 K, m1 = 0.1",0.507 ± 0.001
same,mean ionic activity coefficient,"303.15 K, m1 = 0.2",0.457 ± 0.001
same,mean ionic activity coefficient,"303.15 K, m1 = 0.3",0.437 ± 0.001
same,mean ionic activity coefficient,"313.15 K, m1 = 0.01",0.72 ± 0.001
same,mean ionic activity coefficient,"313.15 K, m1 = 0.02",0.653 ± 0.001
same,mean ionic activity coefficient,"313.15 K, m1 = 0.05",0.563 ± 0.001
same,mean ionic activity coefficient,"313.15 K, m1 = 0.1",0.5 ± 0.001
same,mean ionic activity coefficient,"313.15 K, m1 = 0.2",0.45 ± 0.001
same,mean ionic activity coefficient,"313.15 K, m1 = 0.3",0.429 ± 0.001
same,mean ionic activity coefficient,"323.15 K, m1 = 0.01",0.715 ± 0.001
same,mean ionic activity coefficient,"323.15 K, m1 = 0.02",0.648 ± 0.001
same,mean ionic activity coefficient,"323.15 K, m1 = 0.05",0.556 ± 0.001
same,mean ionic activity coefficient,"323.15 K, m1 = 0.1",0.493 ± 0.001
same,mean ionic activity coefficient,"323.15 K, m1 = 0.2",0.442 ± 0.001
same,mean ionic activity coefficient,"323.15 K, m1 = 0.3",0.421 ± 0.001
same,mean ionic activity coefficient,"333.15 K, m1 = 0.01",0.71 ± 0.001
same,mean ionic activity coefficient,"333.15 K, m1 = 0.02",0.642 ± 0.001
same,mean ionic activity coefficient,"333.15 K, m1 = 0.05",0.549 ± 0.001
same,mean ionic activity coefficient,"333.15 K, m1 = 0.1",0.485 ± 0.001
same,mean ionic activity coefficient,"333.15 K, m1 = 0.2",0.434 ± 0.001
same,mean ionic activity coefficient,"333.15 K, m1 = 0.3",0.413 ± 0.001
